Experiments:
HCC 2998 = experiment: Antiproliferative activity against human HCC2998 cells assessed as growth inhibition after 48 hrs by sulforhodamine B assay; type: functional; conditions: HCC 2998, 48 h
[1] = Antioxidant activity assessed as DPPH radical scavenging activity incubated in dark for 30 mins by spectrophotometric method relative to ascorbic acid; type: functional
[2] = (§1) Haemolytic activity in human erythrocytes assessed as induction of hemolysis at 2.5 mM after 30 mins relative to H202; type: cell-based, Erythrocyte; conditions: erythrocytes, read-out: Activity
RPMI-8226 = experiment: Antiproliferative activity against human RPMI8226 cells assessed as growth inhibition after 48 hrs by sulforhodamine B assay; type: functional; conditions: RPMI-8226, 48 h
HCT-116 [3] = experiment: Induction of apoptosis in human HCT116 cells assessed as increase in caspase 9 mRNA expression at 100 nM after 6 hrs hrs by SYBR green dye-based qRT-PCR analysis relative to control; type: functional
KM12 = experiment: Antiproliferative activity against human KM12 cells assessed as growth inhibition after 48 hrs by sulforhodamine B assay; type: functional; conditions: KM12, 48 h
NCI-H522 = experiment: Antiproliferative activity against human NCI-H522 cells assessed as growth inhibition after 48 hrs by sulforhodamine B assay; type: functional; conditions: NCI-H522, 48 h
K562 = experiment: Antiproliferative activity against human K562 cells assessed as growth inhibition after 48 hrs by sulforhodamine B assay; type: functional, cell-based; conditions: K562, 48 h; for IC50: read-out: IC50
NCI-H226 = experiment: Antiproliferative activity against human NCI-H226 cells assessed as growth inhibition after 48 hrs by sulforhodamine B assay; type: functional; conditions: NCI-H226, 48 h
SW-620 = experiment: Antiproliferative activity against human SW620 cells assessed as growth inhibition after 48 hrs by sulforhodamine B assay; type: functional; conditions: SW-620, 48 h
UACC-62 = experiment: Antiproliferative activity against human UACC62 cells assessed as growth inhibition after 48 hrs by sulforhodamine B assay; type: functional; conditions: UACC-62, 48 h
HCT-116 [4] = experiment: Reduction in CDK1 mRNA expression in human HCT116 cells at 100 nM after 6 hrs hrs by SYBR green dye-based qRT-PCR analysis relative to control; type: functional; conditions: HCT-116, 6 h
A498 = experiment: Antiproliferative activity against human A498 cells assessed as growth inhibition after 48 hrs by sulforhodamine B assay; type: functional; conditions: A498, 48 h
SNB-19 = experiment: Antiproliferative activity against human SNB19 cells assessed as growth inhibition after 48 hrs by sulforhodamine B assay; type: functional; conditions: SNB-19, 48 h
NCI-H322M = experiment: Antiproliferative activity against human NCI-H322M cells assessed as growth inhibition after 48 hrs by sulforhodamine B assay; type: functional
SK-MEL-2 = experiment: Antiproliferative activity against human SK-MEL-2 cells assessed as growth inhibition after 48 hrs by sulforhodamine B assay; type: functional; conditions: SK-MEL-2, 48 h
U-251 = experiment: Antiproliferative activity against human U251 cells assessed as growth inhibition after 48 hrs by sulforhodamine B assay; type: functional; conditions: U-251, 48 h
SK-MEL-28 = experiment: Antiproliferative activity against human SK-MEL-28 cells assessed as growth inhibition after 48 hrs by sulforhodamine B assay; type: functional; conditions: SK-MEL-28, 48 h
WI-38 = experiment: Cytotoxicity activity against human WI38 cells assessed as reduction in cell viability measured after 48 hrs by MTT assay; type: cell-based; conditions: WI-38, 48 h
M14 = experiment: Antiproliferative activity against human M14 cells assessed as growth inhibition after 48 hrs by sulforhodamine B assay; type: functional; conditions: M14, 48 h
SF-295 = experiment: Antiproliferative activity against human SF295 cells assessed as growth inhibition after 48 hrs by sulforhodamine B assay; type: functional; conditions: SF-295, 48 h
[5] = Selectivity index, ratio of IC50 for human WI38 cells to GI50 for human NCI60 cells
HCT-116 [6] = experiment: Antiproliferative activity against human HCT116 cells assessed as growth inhibition after 48 hrs by sulforhodamine B assay; type: functional; conditions: HCT-116, 48 h
IGROV-1 = experiment: Antiproliferative activity against human IGROV1 cells assessed as growth inhibition after 48 hrs by sulforhodamine B assay; type: functional; conditions: IGROV-1, 48 h
CCRF-CEM = experiment: Antiproliferative activity against human CCRF-CEM cells assessed as growth inhibition after 48 hrs by sulforhodamine B assay; type: functional
Erythrocyte [7] = experiment: Haemolytic activity in human erythrocytes assessed as induction of hemolysis at 1.25 mM after 30 mins relative to H202; type: cell-based; conditions: erythrocyte, 0.5 h, 1250 µM
HT-29 = experiment: Antiproliferative activity against human HT-29 cells assessed as growth inhibition after 48 hrs by sulforhodamine B assay; type: functional; conditions: HT-29, 48 h
SK-MEL-5 = experiment: Antiproliferative activity against human SK-MEL-5 cells assessed as growth inhibition after 48 hrs by sulforhodamine B assay; type: functional; conditions: SK-MEL-5, 48 h
Hs-578T = experiment: Antiproliferative activity against human Hs578T cells assessed as growth inhibition after 48 hrs by sulforhodamine B assay; type: functional
SR = experiment: Antiproliferative activity against human SR cells assessed as growth inhibition after 48 hrs by sulforhodamine B assay; type: functional
[8] = Antioxidant activity assessed as ABTS radical scavenging activity by spectrophotometric method relative to ascorbic acid; type: functional
[9] = tested on: Panel NCI-60 (60 carcinoma cell lines); experiment: Antiproliferative activity against human NCI60 cells assessed as growth inhibition at 10 uM after 48 hrs by sulforhodamine B assay; type: functional; conditions: read-out: GI
Erythrocyte [10] = experiment: Haemolytic activity in human erythrocytes assessed as induction of hemolysis at 0.625 mM after 30 mins relative to H202; type: cell-based; conditions: erythrocyte, 0.5 h, 625 µM
ACHN = experiment: Antiproliferative activity against human ACHN cells assessed as growth inhibition after 48 hrs by sulforhodamine B assay; type: functional
NCI/ADR-RES = experiment: Antiproliferative activity against human NCI-ADR-RES cells assessed as growth inhibition after 48 hrs by sulforhodamine B assay; type: functional
HL-60(TB) = experiment: Antiproliferative activity against human HL-60(TB) cells assessed as growth inhibition after 48 hrs by sulforhodamine B assay; type: functional; conditions: HL-60, 48 h
T47D = experiment: Antiproliferative activity against human T47D cells assessed as growth inhibition after 48 hrs by sulforhodamine B assay; type: functional
Erythrocyte [11] = experiment: as §1; type: cell-based; conditions: erythrocyte, 0.5 h, 2500 µM

| SMILES | GI50 (HCC 2998) [nM] | fold change (FC) [1] | GI50 (RPMI-8226) [nM] | fold change (FC) (HCT-116 [3]) | GI50 (KM12) [nM] | GI50 (NCI-H522) [nM] | IC50 (K562) [nM] | GI50 (NCI-H226) [nM] | GI50 (SW-620) [nM] | GI50 (UACC-62) [nM] | GI50 (A498) [nM] | GI50 (SNB-19) [nM] | GI50 (NCI-H322M) [nM] | GI50 (SK-MEL-2) [nM] | GI50 (U-251) [nM] | GI50 (SK-MEL-28) [nM] | IC50 (WI-38) [nM] | GI50 (M14) [nM] | GI50 (SF-295) [nM] | Selectivity Index [5] | further results |
| --- | --- | --- | --- | --- | --- | --- | --- | --- | --- | --- | --- | --- | --- | --- | --- | --- | --- | --- | --- | --- | --- |
| N=C(N)c1ccc(-c2ccc(-c3cc(Cl)cc(Cl)c3)o2)o1 | 1840 | 0.2 | 2130 | 2.97 | 1650 | 1730 | 1300 | 2200 | 1680 | 1940 | 1610 | 1990 | 1620 | 2020 | 1820 | 1730 | 16000 | 1860 | 1770 | 9.2 | hemolysis at 0.5 h, 2500 µM [2]: 11.1%; inhibition at 0.1 µM (HCT-116 [4]): 46%; GI50 (HCT-116 [6]): 1210 nM; GI50 (IGROV-1): 1730 nM; GI50 (CCRF-CEM): 1870 nM; Activity (Erythrocyte [7]): Non-Toxic; GI50 (HT-29): 1500 nM; GI50 (SK-MEL-5): 1860 nM; GI50 (Hs-578T): 2220 nM; GI50 (SR): 630 nM; fold change (FC) [8]: 0.2; inhibition of growth at 10 µM [9]: -57.8%; Activity (Erythrocyte [10]): Non-Toxic; GI50 (ACHN): 1710 nM; GI50 (NCI/ADR-RES): 1840 nM; GI50 (HL-60(TB)): 1620 nM; GI50 (T47D): 1720 nM |
| COc1ccc2cc(-c3ccc(-c4ccc(C(=N)N)s4)s3)ccc2c1 | 3350 | 0.5 | 2160 | 2.51 | 2060 | 1920 | 1180 | 23600 | 1910 | 2010 | 14300 | 2130 | 2020 | 2660 | 1830 | 2500 | 80500 | 4000 | 5070 | 26 | Activity (Erythrocyte [11]): Non-Toxic; GI50 (HCT-116 [6]): 2080 nM; GI50 (IGROV-1): 2270 nM; GI50 (CCRF-CEM): 1510 nM; Activity (Erythrocyte [7]): Non-Toxic; GI50 (HT-29): 1720 nM; GI50 (SK-MEL-5): 16100 nM; GI50 (Hs-578T): 16600 nM; GI50 (SR): 850 nM; fold change (FC) [8]: 0.6; inhibition of growth at 10 µM [9]: 95.3%; Activity (Erythrocyte [10]): Non-Toxic; GI50 (ACHN): 3060 nM; GI50 (NCI/ADR-RES): 2290 nM; GI50 (HL-60(TB)): 1840 nM; GI50 (T47D): 1790 nM |
| N=C(N)c1ccc(-c2ccc(-c3ccc4ccccc4c3)s2)s1 | 2020 | 0.6 | 2300 | 2.33 | 1920 | 1960 | 1530 | 33600 | 1910 | 2100 | 1700 | 1950 | 1640 | 2520 | 1810 | 2250 | 81300 | 2450 | 2270 | 34 | Activity (Erythrocyte [11]): Non-Toxic; GI50 (HCT-116 [6]): 1770 nM; GI50 (IGROV-1): 2160 nM; GI50 (CCRF-CEM): 1870 nM; Activity (Erythrocyte [7]): Non-Toxic; GI50 (HT-29): 1710 nM; GI50 (SK-MEL-5): 14700 nM; GI50 (Hs-578T): 2070 nM; GI50 (SR): 1050 nM; fold change (FC) [8]: 0.8; inhibition of growth at 10 µM [9]: 96.7%; Activity (Erythrocyte [10]): Non-Toxic; GI50 (ACHN): 2530 nM; GI50 (NCI/ADR-RES): 2020 nM; GI50 (HL-60(TB)): 1810 nM; GI50 (T47D): 1950 nM |
| COc1cc(OC)cc(-c2ccc(-c3ccc(C(=N)N)o3)o2)c1 | 2050 | 0.3 | 2250 | 1.03 | 2450 | 2300 | 1890 | 2260 | 1880 | 1980 | 2890 | 3020 | 2860 | 2440 | 2450 | 1820 | 81600 | 2070 | 2080 | 27 | Activity (Erythrocyte [11]): Non-Toxic; GI50 (K562): 1980 nM; GI50 (HCT-116 [6]): 2510 nM; GI50 (IGROV-1): 2970 nM; GI50 (CCRF-CEM): 2720 nM; Activity (Erythrocyte [7]): Non-Toxic; GI50 (HT-29): 2770 nM; GI50 (SK-MEL-5): 1950 nM; GI50 (Hs-578T): 8120 nM; GI50 (SR): 1880 nM; fold change (FC) [8]: 0.4; inhibition of growth at 10 µM [9]: 55.9%; Activity (Erythrocyte [10]): Non-Toxic; GI50 (ACHN): 2050 nM; GI50 (NCI/ADR-RES): 8260 nM; GI50 (HL-60(TB)): 1900 nM; GI50 (T47D): 2080 nM |

Reference: ChEMBL document CHEMBL4346657, “Anticancer activity, dual prooxidant/antioxidant effect and apoptosis induction profile of new bichalcophene-5-carboxamidines” (Eur J Med Chem, 2019)
